Where “and” joins values, the source holds several entries; their conditions need not be identical. Equal entries are not always repeated.
Assays:
CD1c = tested on: CD1c; parameters: method as in Mansour et al., 2016; settings: ref Mansour et al., 2016; cited from earlier work
hCD1d = hCD1d (Homo sapiens, UniProt P15813+P61769); experiment: Detergent competition with 18:1 LPC binding to hCD1d (ITF, MST, nanoDSF); parameters: TEV protease cleavage site ENLYFQS (C); BirA biotinylation site (C); His7 (C); made in house; host or cells: TurboCHO cells (GenScript); settings: 0.05% detergent
Description: We selected 18:1 LPC for the competition experiments since, first, a structure with hCD1d has been well characterized, and second, it binds hCD1d with moderate micromolar affinity, which is representative of many endogenous lipid antigens (Cantu et al., [2003]; López‐Sagaseta et al., [2012]). In the absence of detergent, 18:1 LPC produced concentration‐dependent changes in ITF and MST signal and decreased the melting temperature of hCD1d (ΔT m = −8.1 ± 1.7°C), indicative of specific binding and hCD1d destabilization (Figure 7c–e).
ITF spectra were recorded from 300 to 500 nm using a Horiba FL3‐21 Fluorometer with the excitation wavelength of 285 nm and excitation/emission slits of 6.2 nm. Fluorescence spectra of 50 to 100 nM hCD1d were acquired in the absence and presence of detergents in 1X PBS pH 7.4 at 25°C. Prior to data acquisition, hCD1d and detergent or lipid samples were incubated at 37°C overnight (~12 h) to simulate in vitro and in vivo loading conditions. […] For 18:1 LPC experiments, fluorescence spectra of 100 nM hCD1d were acquired in the absence and presence of 18:1 LPC in 1X PBS pH 7.4 at 25°C. […] For all ITF experiments, the change in fluorescence signal (F − F 0/F 0) was determined at 335 nm. Three replicates were performed, and data are presented as the mean ± standard deviation (n = 3). K D values were fitted with non‐linear regression in GraphPad Prism v10.1. […]

[1] = target: T1, CSP 319‐328/HLA‐B*08:01/hβ2M complex (Homo sapiens, UniProt P01889, A93T/A95T/D138N/E176V/E187T/K202T/Q94N/R180D/S35A/V36M/Y33D/Y91F); experiment: ITF with peptide/HLA complex; assay type: binding; settings: for ITF change in Trp fluorescence (F-F0/F0): replicates
T1 construct: made in house
From the text: To determine whether detergent effects were specific to hCD1d, we performed analogous ITF, MST, and nanoDSF experiments with a peptide/HLA complex. HLA‐B*08:01, presenting the Plasmodium falciparum derived peptide […] ([…]), was selected as a representative model system since the peptide antigen contains hydrophilic solvent‐exposed residues in the antigen‐binding groove (Frooman et al., [2025]). Although structurally similar to that of hCD1d, HLA‐B*08:01 shares low sequence identity (Figure S10a). […] By nanoDSF, ODG caused minimal destabilization of either complex (ΔT m≈−0.2 to −0.8°C; Figure S10f). […] We posit that lipid‐specific unloading effects of detergent are due to either hydrophobic residues in the antigen binding groove (detergent‐CD1d interactions) and/or the hydrophobic nature of the lipid antigen (detergent‐lipid interactions).
For comparison with peptide/HLA molecules, we prepared recombinant CSP 319‐328/HLA‐B*08:01/hβ2M complex using in vitro refolding methods fully described previously (Frooman et al., [2025]). The peptide sequence for CSP 319–328 is […]. This peptide was chosen since it contains Lys, Gln, and Asp residues predicted to be solvent‐exposed in the HLA‐B*08:01 binding groove (Frooman et al., [2025]).
ITF experiments with peptide/HLA molecules and detergents were performed using an analogous protocol.

Sequence of hCD1d (P61769+P15813 fused): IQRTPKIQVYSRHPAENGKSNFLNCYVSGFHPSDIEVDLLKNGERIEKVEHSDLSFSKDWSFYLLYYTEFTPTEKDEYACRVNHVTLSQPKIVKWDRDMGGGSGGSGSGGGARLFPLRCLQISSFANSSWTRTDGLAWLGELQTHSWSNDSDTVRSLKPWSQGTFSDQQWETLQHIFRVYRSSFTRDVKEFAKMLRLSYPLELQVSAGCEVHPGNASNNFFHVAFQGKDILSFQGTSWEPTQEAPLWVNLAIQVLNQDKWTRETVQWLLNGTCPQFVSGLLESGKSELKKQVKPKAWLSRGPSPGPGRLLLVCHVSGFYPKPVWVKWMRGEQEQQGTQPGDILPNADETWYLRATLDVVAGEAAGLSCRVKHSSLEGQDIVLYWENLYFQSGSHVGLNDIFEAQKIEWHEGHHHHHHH

In the case of `C[C@H](CCC(=O)NCCC[N+](C)(C)CCCS(=O)(=O)[O-])[C@H]1CC[C@H]2[C@@H]3[C@H](O)C[C@@H]4C[C@H](O)CC[C@]4(C)[C@H]3C[C@H](O)[C@]12C` [CHAPS, 3‐((3‐cholamidopropyl) dimethylammonio)‐1‐propanesulfonate], the “stripping of lipid antigens from CD1c (in words)” value (CD1c) is given as “not” and the “effect of detergent on 18:1 LPC binding to hCD1d (in words)” value (hCD1d) is given as “did not robustly outcompete binding”.

With `CCCCCCCCO[C@@H]1O[C@H](CO)[C@@H](O)[C@H](O)[C@H]1O` [ODG, n‐octyl‐β‐D‐glucopyranoside] the “ITF fluorescence change with peptide/HLA (in words)” value [1] was “minimal concentration‐dependent fluorescence changes”, the “ITF change in Trp fluorescence (F-F0/F0)” value ([1]; peptide/HLA with ODG, concentration 1.53e-6 (unit not given)) was 0 and the “ITF change in Trp fluorescence (F-F0/F0)” value ([1]; peptide/HLA with ODG, concentration 3.05e-6 (unit not given)) was 0.00207 and -0.125 and -0.0308. The “ITF change in Trp fluorescence (F-F0/F0)” value ([1]; peptide/HLA with ODG, concentration 6.1e-6 (unit not given)) was 0.0103 and -0.142 and -0.0188, the “ITF change in Trp fluorescence (F-F0/F0)” value ([1]; peptide/HLA with ODG, concentration 1.22e-5 (unit not given)) was 0.0112 and -0.132 and -0.0414 and the “ITF change in Trp fluorescence (F-F0/F0)” value ([1]; peptide/HLA with ODG, concentration 2.44e-5 (unit not given)) was 0.0406 and -0.126 and -0.0165. For the same molecule, the “ITF change in Trp fluorescence (F-F0/F0)” value ([1]; peptide/HLA with ODG, concentration 4.88e-5 (unit not given)) was -0.113 and -0.0115 and 0.0922, the “ITF change in Trp fluorescence (F-F0/F0)” value ([1]; peptide/HLA with ODG, concentration 9.77e-5 (unit not given)) was -0.121 and -0.135 and 0.0848 and the “ITF change in Trp fluorescence (F-F0/F0)” value ([1]; peptide/HLA with ODG, concentration 0.000195 (unit not given)) was 0.0173 and -0.126 and -0.052. For the same molecule, the “ITF change in Trp fluorescence (F-F0/F0)” value ([1]; peptide/HLA with ODG, concentration 0.000391 (unit not given)) was 0.0313 and -0.107 and -0.0351, the “ITF change in Trp fluorescence (F-F0/F0)” value ([1]; peptide/HLA with ODG, concentration 0.000781 (unit not given)) was -0.0702 and -0.0972 and -0.0274 and the “ITF change in Trp fluorescence (F-F0/F0)” value ([1]; peptide/HLA with ODG, concentration 0.00156 (unit not given)) was -0.063 and -0.0903 and -0.0215. The “ITF change in Trp fluorescence (F-F0/F0)” value ([1]; peptide/HLA with ODG, concentration 0.00313 (unit not given)) was 0.0779 and 0.0569 and 0.00937, the “ITF change in Trp fluorescence (F-F0/F0)” value ([1]; peptide/HLA with ODG, concentration 0.00625 (unit not given)) was 0.0158 and 0.129 and 0.219 and the “ITF change in Trp fluorescence (F-F0/F0)” value ([1]; peptide/HLA with ODG, concentration 0.0125 (unit not given)) was 0.00491 and 0.00219 and 0.25. For the same molecule, the “ITF change in Trp fluorescence (F-F0/F0)” value ([1]; peptide/HLA with ODG, concentration 0.025 (unit not given)) was 0.118 and 0.242 and 0.374.

In the case of Tween 20, the Kd ([1]; 100 nM peptide/HLA, 25°C, read-out: K D (ITF), peptide/HLA) is reported as 7.7 ± 0.8 µM, the “ITF change in Trp fluorescence (F-F0/F0)” value ([1]; peptide/HLA with Tween 20, concentration 3.05e-8 (unit not given)) is reported as 0 and the “ITF change in Trp fluorescence (F-F0/F0)” value ([1]; peptide/HLA with Tween 20, concentration 6.1e-8 (unit not given)) is reported as -0.0537 and 0.114 and 0.0797. For the same molecule, the “ITF change in Trp fluorescence (F-F0/F0)” value ([1]; peptide/HLA with Tween 20, concentration 1.22e-7 (unit not given)) was 0.119 and -0.000172 and -0.0554, the “ITF change in Trp fluorescence (F-F0/F0)” value ([1]; peptide/HLA with Tween 20, concentration 2.44e-7 (unit not given)) was -0.00869 and 0.126 and 0.0688 and the “ITF change in Trp fluorescence (F-F0/F0)” value ([1]; peptide/HLA with Tween 20, concentration 4.88e-7 (unit not given)) was 0.121 and 0.101 and 0.0628. For the same molecule, the “ITF change in Trp fluorescence (F-F0/F0)” value ([1]; peptide/HLA with Tween 20, concentration 9.77e-7 (unit not given)) was 0.12 and -0.0283 and -0.0494, the “ITF change in Trp fluorescence (F-F0/F0)” value ([1]; peptide/HLA with Tween 20, concentration 1.95e-6 (unit not given)) was 0.159 and 0.0122 and -0.04 and the “ITF change in Trp fluorescence (F-F0/F0)” value ([1]; peptide/HLA with Tween 20, concentration 3.91e-6 (unit not given)) was 0.0962 and 0.218 and 0.169. For the same molecule, the “ITF change in Trp fluorescence (F-F0/F0)” value ([1]; peptide/HLA with Tween 20, concentration 7.81e-6 (unit not given)) was 0.176 and 0.206 and 0.0921, the “ITF change in Trp fluorescence (F-F0/F0)” value ([1]; peptide/HLA with Tween 20, concentration 1.56e-5 (unit not given)) was 0.336 and 0.182 and 0.11 and the “ITF change in Trp fluorescence (F-F0/F0)” value ([1]; peptide/HLA with Tween 20, concentration 3.13e-5 (unit not given)) was 0.356 and 0.339 and 0.0994. The “ITF change in Trp fluorescence (F-F0/F0)” value ([1]; peptide/HLA with Tween 20, concentration 6.25e-5 (unit not given)) was 0.189 and 0.365 and 0.248, the “ITF change in Trp fluorescence (F-F0/F0)” value ([1]; peptide/HLA with Tween 20, concentration 0.000125 (unit not given)) was 0.38 and 0.23 and 0.139 and the “ITF change in Trp fluorescence (F-F0/F0)” value ([1]; peptide/HLA with Tween 20, concentration 0.00025 (unit not given)) was 0.261 and 0.271 and 0.181. For the same molecule, the “stripping of lipid antigens from CD1c (in words)” value (CD1c) was “could efficiently strip lipid antigens away” and the “effect of detergent on 18:1 LPC binding to hCD1d (in words)” value (hCD1d) was “abolished nearly all detectable binding signals”.

Reference: PMC12720774, “Detergents alter the stability and lipid binding properties of the CD1d immunoreceptor” (Protein Science : A Publication of the Protein Society, 2025)
